# Test results: article PMC9288506, “Compounds activating VCP D1 ATPase enhance both autophagic and proteasomal neurotoxic protein clearance” (Nature Communications, 2022)
# Columns and labels:
# Assay in all cases: biochemical
# Set-up in all cases: Thermo Fisher in vitro kinase panel, per cent inhibition of kinase activity at 10 uM
# [1] = molecular target: AURKB (Aurora B) (Homo sapiens, UniProt Q96GD4)
# Method: (§1) Kinase profiling of SMER28 and analogs SMER28 and analogs were tested at 10 µM in a panel of 123 kinases at ThermoFisher Scientific. Follow-up of selected kinases for SMER28 and analogs was also performed at ThermoFisher Scientific. Data are shown in Supplementary Data 2 and 3. […] An inhibition of PIK3C could induce autophagy, mediated by signaling through the AKT/mTOR axis[45].
# [2] = molecular target: MAP3K9 (MLK1) (Homo sapiens, UniProt P80192)
# Method: as §1
# [3] = molecular target: INSR (Homo sapiens, UniProt P06213)
# Method: as §1
# [4] = molecular target: FES (FPS) (Homo sapiens, UniProt P07332)
# Method: as §1
# [5] = molecular target: TBK1 (Homo sapiens, UniProt Q9UHD2)
# Method: as §1
# [6] = molecular target: FGFR1 V561M (Homo sapiens, UniProt P11362, V561M)
# Sequence of FGFR1 V561M (P11362 whole entry V561M): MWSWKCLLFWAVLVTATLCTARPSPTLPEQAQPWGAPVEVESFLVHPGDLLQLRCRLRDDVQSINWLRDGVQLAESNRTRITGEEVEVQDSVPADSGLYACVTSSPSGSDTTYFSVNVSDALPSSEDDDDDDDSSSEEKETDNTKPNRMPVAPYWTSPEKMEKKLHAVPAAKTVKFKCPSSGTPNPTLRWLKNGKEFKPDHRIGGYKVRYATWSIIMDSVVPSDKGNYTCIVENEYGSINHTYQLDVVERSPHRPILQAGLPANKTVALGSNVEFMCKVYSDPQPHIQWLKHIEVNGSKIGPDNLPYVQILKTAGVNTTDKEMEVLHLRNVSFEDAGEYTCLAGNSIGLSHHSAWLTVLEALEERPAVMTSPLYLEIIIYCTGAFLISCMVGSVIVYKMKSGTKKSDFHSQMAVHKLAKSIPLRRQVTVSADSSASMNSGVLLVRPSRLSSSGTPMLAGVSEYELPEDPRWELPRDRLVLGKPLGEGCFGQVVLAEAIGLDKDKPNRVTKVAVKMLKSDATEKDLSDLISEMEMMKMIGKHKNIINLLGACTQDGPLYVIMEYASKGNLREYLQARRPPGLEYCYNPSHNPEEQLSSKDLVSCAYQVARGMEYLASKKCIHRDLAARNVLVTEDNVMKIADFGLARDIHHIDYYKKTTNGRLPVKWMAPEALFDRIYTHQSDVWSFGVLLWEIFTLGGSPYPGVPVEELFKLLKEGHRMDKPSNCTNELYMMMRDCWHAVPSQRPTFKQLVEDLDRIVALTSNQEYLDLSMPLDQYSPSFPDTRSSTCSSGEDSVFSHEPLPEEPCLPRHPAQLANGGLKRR
# Method: as §1
# [7] = molecular target: DYRK2 (Homo sapiens, UniProt Q92630)
# Method: as §1
# [8] = molecular target: JAK1 (Homo sapiens, UniProt P23458)
# Method: as §1
# [9] = molecular target: MARK1 (MARK) (Homo sapiens, UniProt Q9P0L2)
# Method: as §1
# [10] = molecular target: ROCK2 (Homo sapiens, UniProt O75116)
# Method: as §1
# [11] = molecular target: EGFR (ErbB1) (Homo sapiens, UniProt P00533)
# Method: as §1
# [12] = molecular target: DMPK (Homo sapiens, UniProt Q09013)
# Method: as §1
# [13] = molecular target: EGFR (ErbB1) T790M L858R (Homo sapiens, UniProt P00533, L858R/T790M)
# Sequence of EGFR (ErbB1) T790M L858R (P00533 whole entry T790M/L858R): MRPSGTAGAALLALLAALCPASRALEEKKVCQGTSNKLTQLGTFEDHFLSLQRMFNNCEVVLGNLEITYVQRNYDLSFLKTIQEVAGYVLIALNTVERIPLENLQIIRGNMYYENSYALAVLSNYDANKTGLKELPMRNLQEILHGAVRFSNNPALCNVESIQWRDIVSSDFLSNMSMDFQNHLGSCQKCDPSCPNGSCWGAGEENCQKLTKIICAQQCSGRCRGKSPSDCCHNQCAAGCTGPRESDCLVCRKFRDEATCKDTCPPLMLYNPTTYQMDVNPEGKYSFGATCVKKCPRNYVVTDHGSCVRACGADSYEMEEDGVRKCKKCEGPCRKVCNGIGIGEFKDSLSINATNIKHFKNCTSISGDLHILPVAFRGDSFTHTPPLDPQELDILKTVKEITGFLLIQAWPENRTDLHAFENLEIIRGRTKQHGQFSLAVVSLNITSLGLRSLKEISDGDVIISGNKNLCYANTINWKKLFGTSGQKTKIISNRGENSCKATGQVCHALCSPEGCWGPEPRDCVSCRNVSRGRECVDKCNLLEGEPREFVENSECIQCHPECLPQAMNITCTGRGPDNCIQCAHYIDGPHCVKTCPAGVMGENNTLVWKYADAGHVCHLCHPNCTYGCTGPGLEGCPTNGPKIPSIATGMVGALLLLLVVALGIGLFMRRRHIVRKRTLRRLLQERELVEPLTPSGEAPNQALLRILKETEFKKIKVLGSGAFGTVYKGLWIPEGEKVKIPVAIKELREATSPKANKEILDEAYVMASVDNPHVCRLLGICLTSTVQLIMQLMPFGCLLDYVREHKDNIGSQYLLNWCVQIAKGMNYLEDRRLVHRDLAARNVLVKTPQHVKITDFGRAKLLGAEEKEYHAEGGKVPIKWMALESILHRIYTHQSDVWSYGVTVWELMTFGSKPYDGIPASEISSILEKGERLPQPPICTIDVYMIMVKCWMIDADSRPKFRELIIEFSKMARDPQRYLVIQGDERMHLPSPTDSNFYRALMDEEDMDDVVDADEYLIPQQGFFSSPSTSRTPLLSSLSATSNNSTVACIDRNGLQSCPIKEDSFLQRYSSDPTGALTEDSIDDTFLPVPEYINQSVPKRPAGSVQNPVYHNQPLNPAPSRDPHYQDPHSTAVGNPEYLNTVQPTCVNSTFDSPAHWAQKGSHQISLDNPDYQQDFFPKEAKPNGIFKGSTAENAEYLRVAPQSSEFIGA
# Method: as §1
# [14] = molecular target: IKBKB (IKK beta) (Homo sapiens, UniProt O14920)
# Sequence of IKBKB (IKK beta) (O14920 whole entry): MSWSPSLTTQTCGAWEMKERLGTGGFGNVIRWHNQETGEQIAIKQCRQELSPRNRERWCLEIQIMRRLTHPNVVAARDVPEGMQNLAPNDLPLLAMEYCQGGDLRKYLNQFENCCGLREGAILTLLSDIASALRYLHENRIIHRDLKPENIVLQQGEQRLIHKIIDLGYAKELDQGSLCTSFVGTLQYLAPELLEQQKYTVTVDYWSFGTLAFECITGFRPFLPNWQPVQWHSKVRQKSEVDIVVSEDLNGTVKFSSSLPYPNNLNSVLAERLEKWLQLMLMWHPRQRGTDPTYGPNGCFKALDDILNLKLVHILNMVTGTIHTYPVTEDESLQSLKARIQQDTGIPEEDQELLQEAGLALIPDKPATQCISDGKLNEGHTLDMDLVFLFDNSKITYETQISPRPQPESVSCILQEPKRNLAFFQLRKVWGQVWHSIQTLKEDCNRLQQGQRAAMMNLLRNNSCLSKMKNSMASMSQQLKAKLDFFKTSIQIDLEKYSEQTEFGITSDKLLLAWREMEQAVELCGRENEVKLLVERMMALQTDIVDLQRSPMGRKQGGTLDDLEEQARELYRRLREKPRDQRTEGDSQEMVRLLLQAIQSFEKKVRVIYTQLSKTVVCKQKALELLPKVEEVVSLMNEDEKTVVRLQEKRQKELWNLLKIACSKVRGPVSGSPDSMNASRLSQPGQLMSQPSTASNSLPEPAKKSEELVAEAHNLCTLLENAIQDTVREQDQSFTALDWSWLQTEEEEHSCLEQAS
# Method: as §1
# [15] = molecular target: MYLK (MLCK) (Homo sapiens, UniProt Q15746)
# Method: as §1
# [16] = molecular target: MKNK2 (MNK2) (Homo sapiens, UniProt Q9HBH9)
# Method: as §1
# [17] = molecular target: PIK3CB/PIK3R1 (p110 beta/p85 alpha) (Homo sapiens, UniProt P42338)
# Method: as §1
# [18] = molecular target: INSRR (IRR) (Homo sapiens, UniProt P14616)
# Method: as §1
# [19] = molecular target: T1, PDK1 (Homo sapiens, UniProt O15530)
# T1 construct: gene PDPK1
# Method: as §1
# [20] = molecular target: JAK3 (Homo sapiens, UniProt P52333)
# Sequence of JAK3 (P52333 whole entry): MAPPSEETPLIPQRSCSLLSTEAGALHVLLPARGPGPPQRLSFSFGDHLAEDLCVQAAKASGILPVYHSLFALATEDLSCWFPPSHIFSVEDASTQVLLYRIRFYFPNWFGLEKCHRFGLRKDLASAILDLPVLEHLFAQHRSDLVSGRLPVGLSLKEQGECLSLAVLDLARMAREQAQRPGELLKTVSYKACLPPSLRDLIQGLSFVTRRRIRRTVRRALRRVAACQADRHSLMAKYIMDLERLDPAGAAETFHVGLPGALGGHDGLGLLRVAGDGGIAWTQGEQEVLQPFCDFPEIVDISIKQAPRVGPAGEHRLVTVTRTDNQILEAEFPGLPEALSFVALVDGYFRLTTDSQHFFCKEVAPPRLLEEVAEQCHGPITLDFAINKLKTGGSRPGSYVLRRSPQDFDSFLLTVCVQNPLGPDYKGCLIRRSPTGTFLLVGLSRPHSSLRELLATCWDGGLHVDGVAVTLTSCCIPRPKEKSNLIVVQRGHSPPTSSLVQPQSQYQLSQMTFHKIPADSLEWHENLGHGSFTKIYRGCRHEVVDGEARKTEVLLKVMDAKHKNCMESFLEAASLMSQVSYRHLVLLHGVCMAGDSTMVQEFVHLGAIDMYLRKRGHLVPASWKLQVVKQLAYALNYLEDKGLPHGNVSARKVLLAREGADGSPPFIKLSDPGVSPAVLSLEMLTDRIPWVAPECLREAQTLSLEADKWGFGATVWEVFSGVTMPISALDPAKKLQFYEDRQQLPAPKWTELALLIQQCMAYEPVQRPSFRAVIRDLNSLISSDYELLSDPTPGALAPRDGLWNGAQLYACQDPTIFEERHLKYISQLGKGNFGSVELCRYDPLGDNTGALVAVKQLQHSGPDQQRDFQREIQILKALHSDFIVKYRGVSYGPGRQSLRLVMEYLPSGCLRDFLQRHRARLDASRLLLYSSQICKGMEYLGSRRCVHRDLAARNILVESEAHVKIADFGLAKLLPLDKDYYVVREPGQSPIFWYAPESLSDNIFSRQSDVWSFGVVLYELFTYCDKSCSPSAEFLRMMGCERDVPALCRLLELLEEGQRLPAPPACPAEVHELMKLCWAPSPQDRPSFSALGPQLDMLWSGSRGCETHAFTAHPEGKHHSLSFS
# Method: as §1
# [21] = molecular target: FRAP1 (mTOR) (Homo sapiens, UniProt P42345)
# Method: as §1
# [22] = molecular target: FLT3 (Homo sapiens, UniProt P36888)
# Sequence of FLT3 (P36888 whole entry): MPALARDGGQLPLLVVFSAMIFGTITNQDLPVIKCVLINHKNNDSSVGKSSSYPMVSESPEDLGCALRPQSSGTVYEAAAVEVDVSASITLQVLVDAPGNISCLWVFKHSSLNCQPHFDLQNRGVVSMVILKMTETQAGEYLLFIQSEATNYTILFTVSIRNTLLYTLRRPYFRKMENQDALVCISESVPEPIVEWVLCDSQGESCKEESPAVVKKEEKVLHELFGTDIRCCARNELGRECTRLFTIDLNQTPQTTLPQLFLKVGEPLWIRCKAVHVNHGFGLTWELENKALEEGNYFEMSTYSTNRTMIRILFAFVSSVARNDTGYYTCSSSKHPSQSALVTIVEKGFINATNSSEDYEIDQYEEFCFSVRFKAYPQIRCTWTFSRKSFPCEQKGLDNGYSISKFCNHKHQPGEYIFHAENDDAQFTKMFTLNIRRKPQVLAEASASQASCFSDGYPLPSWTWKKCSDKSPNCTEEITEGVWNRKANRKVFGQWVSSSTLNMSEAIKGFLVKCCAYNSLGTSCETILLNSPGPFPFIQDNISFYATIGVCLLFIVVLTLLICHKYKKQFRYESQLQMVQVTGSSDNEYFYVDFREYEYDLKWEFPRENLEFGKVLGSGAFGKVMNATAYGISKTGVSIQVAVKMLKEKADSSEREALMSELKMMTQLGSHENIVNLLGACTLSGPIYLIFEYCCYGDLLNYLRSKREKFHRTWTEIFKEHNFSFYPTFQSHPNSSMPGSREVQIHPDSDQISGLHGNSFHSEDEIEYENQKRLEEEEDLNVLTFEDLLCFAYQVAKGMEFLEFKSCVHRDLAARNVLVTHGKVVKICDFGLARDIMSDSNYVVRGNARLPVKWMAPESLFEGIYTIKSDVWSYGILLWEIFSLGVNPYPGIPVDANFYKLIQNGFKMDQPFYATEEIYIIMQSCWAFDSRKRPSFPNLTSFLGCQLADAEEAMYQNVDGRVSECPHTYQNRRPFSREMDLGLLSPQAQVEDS
# Method: as §1
# [23] = molecular target: RPS6KB1 (p70S6K) (Homo sapiens, UniProt P23443)
# Method: as §1
# [24] = molecular target: GSK3A (GSK3 alpha) (Homo sapiens, UniProt P49840)
# Method: as §1
# [25] = molecular target: PRKACA (PKA) (Homo sapiens, UniProt P17612)
# Method: as §1
smiles,measurement,setting,value
C=CCNc1ncnc2ccc(Br)cc12 [SMER28],inhibition at 10 µM,[1],18%
same,inhibition at 10 µM,[2],-2%
same,inhibition at 10 µM,[3],-1%
same,inhibition at 10 µM,[4],8%
same,inhibition at 10 µM,[5],4%
same,inhibition at 10 µM,[6],9%
same,inhibition at 10 µM,[7],67%
same,inhibition at 10 µM,[8],-13%
same,inhibition at 10 µM,[9],11%
same,inhibition at 10 µM,[10],-5%
same,inhibition at 10 µM,[11],12%
same,inhibition at 10 µM,[12],57%
same,inhibition at 10 µM,[13],15%
same,inhibition at 10 µM,[14],17%
same,inhibition at 10 µM,[15],12%
same,inhibition at 10 µM,[16],32%
same,inhibition at 10 µM,[17],23%
same,inhibition at 10 µM,[18],5%
same,inhibition at 10 µM,[19],-7%
same,inhibition at 10 µM,[20],14%
same,inhibition at 10 µM,[21],-7%
same,inhibition at 10 µM,[22],40%
same,inhibition at 10 µM,[23],22%
same,inhibition at 10 µM,[24],23%
same,inhibition at 10 µM,[25],10%
